Measurements as given in PubChem BioAssay AID330 (DTP/NCI, 2004).
“And” between values parts separate entries of the source, which are not always exact repeats. Equal values may be shown once. Toxic doses and inconclusive results are not listed.

Test system: P388 leukemia ip, CD2F1 mice, survival T/C
Experiment: NCI In Vivo Anticancer Drug Screen. Data for tumor model P388 Leukemia (intraperitoneal) in CD2F1 (CDF1) mice
Conditions: endpoint: median survival time, higher = longer survival
Procedure, shortened: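 Mice carrying the transplanted tumor received test compound or vehicle. Survival was recorded in each group, and the value is the treated-group measurement divided by that of the vehicle-treated control group.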

[1] = dose: 50.0 mg/kg/injection, schedule: Q01DX009 (ip), vehicle: saline
[2] = dose: 100.0 mg/kg/injection, schedule: Q01DX009 (ip), vehicle: saline
[3] = dose: 200.0 mg/kg/injection, schedule: Q01DX009 (ip), vehicle: saline
[4] = dose: 60.0 mg/kg/injection, schedule: Q01DX005 (ip), vehicle: saline with Tween-80
[5] = dose: 120.0 mg/kg/injection, schedule: Q01DX005 (ip), vehicle: saline with Tween-80
[6] = dose: 240.0 mg/kg/injection, schedule: Q01DX005 (ip), vehicle: saline with Tween-80
[7] = dose: 50.0 mg/kg/injection, schedule: Q01DX009 (ip), vehicle: Klucel (hydroxypropylcellulose) (HPC)
[8] = dose: 100.0 mg/kg/injection, schedule: Q01DX009 (ip), vehicle: Klucel (hydroxypropylcellulose) (HPC)
[9] = dose: 50.0 mg/kg/injection, schedule: Q01DX005 (ip), vehicle: saline
[10] = dose: 100.0 mg/kg/injection, schedule: Q01DX001 (ip), vehicle: saline
[11] = dose: 100.0 mg/kg/injection, schedule: Q01DX005 (ip), vehicle: saline
[12] = dose: 200.0 mg/kg/injection, schedule: Q01DX001 (ip), vehicle: saline
[13] = dose: 200.0 mg/kg/injection, schedule: Q01DX005 (ip), vehicle: saline
[14] = dose: 400.0 mg/kg/injection, schedule: Q01DX001 (ip), vehicle: saline

## COc1c(C(C)C)ccc2c1CCC1C3=C(CCC21C)C(=O)OC3 (stereo not given)
dose: 6.25 mg/kg/injection, schedule: Q01DX009 (ip), vehicle: DMSO
  T/C: 109 % of control
dose: 12.5 mg/kg/injection, schedule: Q01DX009 (ip), vehicle: DMSO
  T/C: 100 % of control
dose: 25.0 mg/kg/injection, schedule: Q01DX009 (ip), vehicle: DMSO
  T/C: 106 % of control

## CC(NC(=O)C(CO)NC(=O)c1cnc2ccccc2n1)C(=O)OC(C)(C)C (stereo not given)
dose: 60.0 mg/kg/injection, schedule: Q01DX005 (ip), vehicle: DMSO
  T/C: 98 % of control
dose: 120.0 mg/kg/injection, schedule: Q01DX005 (ip), vehicle: DMSO
  T/C: 99 % of control
dose: 240.0 mg/kg/injection, schedule: Q01DX005 (ip), vehicle: DMSO
  T/C: 109 % of control

## CCC1(O)CC2CN(CCc3c([nH]c4ccccc34)C(C(=O)OC)(c3cc4c(cc3OC)N(C=O)C3C(O)(C(=O)OC)CC5(CC)C=CCN6CCC43C65)C2)C1 (stereo not given)
dose: 1.0 mg/kg/injection, schedule: Q01DX001 (ip), vehicle: saline
  T/C: 155 % of control and 160 % of control
dose: 2.0 mg/kg/injection, schedule: Q01DX001 (ip), vehicle: saline
  T/C: 158 % of control and 160 % of control
dose: 4.0 mg/kg/injection, schedule: Q01DX001 (ip), vehicle: saline
  T/C: 180 % of control and 185 % of control
dose: 8.0 mg/kg/injection, schedule: Q01DX001 (ip), vehicle: saline
  T/C: 205 % of control and 220 % of control
dose: 16.0 mg/kg/injection, schedule: Q01DX001 (ip), vehicle: saline
  T/C: 255 % of control

## COC(=O)C(=Cc1ccc(OC)cc1)C(=O)OC
[1]
  T/C: 95 % of control
[2]
  T/C: 95 % of control
[3]
  T/C: 92 % of control

## Cc1ccc(C(=O)OC2C3(C)CCC(C3)C2(C)C)cc1 (stereo not given)
[4]
  T/C: 100 % of control
[5]
  T/C: 100 % of control
[6]
  T/C: 94 % of control

## CCOC(=O)NC(=S)Nc1ccsc1
dose: 50.0 mg/kg/injection, schedule: Q01DX009 (ip), vehicle: saline with Tween-80
  T/C: 99 % of control
dose: 100.0 mg/kg/injection, schedule: Q01DX009 (ip), vehicle: saline with Tween-80
  T/C: 104 % of control
dose: 200.0 mg/kg/injection, schedule: Q01DX009 (ip), vehicle: saline with Tween-80
  T/C: 102 % of control

## CCCS(=O)(=O)N/N=C(\C)c1cccs1
[7]
  T/C: 95 % of control
[8]
  T/C: 87 % of control

## COc1ccc2c(c1)c(-c1cc3ccccc3oc1=O)cn2C(=O)c1ccc(Cl)cc1
[4]
  T/C: 105 % of control
[5]
  T/C: 102 % of control
[6]
  T/C: 106 % of control

## CCN(CC)Cc1cc(Nc2nc(/C=C/c3ccc(Cl)cc3)nc(Cl)c2-c2ccc(Cl)cc2)ccc1O
dose: 25.0 mg/kg/injection, schedule: Q01DX001 (ip), vehicle: suspension in saline
  T/C: 107 % of control
dose: 50.0 mg/kg/injection, schedule: Q01DX001 (ip), vehicle: suspension in saline
  T/C: 111 % of control
[9]
  T/C: 111 % of control
[10]
  T/C: 103 % of control
dose: 100.0 mg/kg/injection, schedule: Q01DX001 (ip), vehicle: suspension in saline
  T/C: 100 % of control and 108 % of control
[11]
  T/C: 116 % of control
[12]
  T/C: 103 % of control
dose: 200.0 mg/kg/injection, schedule: Q01DX001 (ip), vehicle: suspension in saline
  T/C: 108 % of control and 97 % of control
[13]
  T/C: 103 % of control
[14]
  T/C: 103 % of control
dose: 400.0 mg/kg/injection, schedule: Q01DX001 (ip), vehicle: suspension in saline
  T/C: 108 % of control and 87 % of control

## CC(C)(C)C1CCC2(N3CCOCC3)C(C#N)CC2C1 (stereo not given)
dose: 25.0 mg/kg/injection, schedule: Q01DX005 (ip), vehicle: Klucel (hydroxypropylcellulose) (HPC)
  T/C: 105 % of control
dose: 50.0 mg/kg/injection, schedule: Q01DX005 (ip), vehicle: Klucel (hydroxypropylcellulose) (HPC)
  T/C: 102 % of control
dose: 50.0 mg/kg/injection, schedule: Q01DX005 (ip), vehicle: saline + Tween-80 + alcohol
  T/C: 105 % of control
dose: 100.0 mg/kg/injection, schedule: Q01DX005 (ip), vehicle: Klucel (hydroxypropylcellulose) (HPC)
  T/C: 103 % of control
dose: 100.0 mg/kg/injection, schedule: Q01DX005 (ip), vehicle: saline + Tween-80 + alcohol
  T/C: 110 % of control
dose: 200.0 mg/kg/injection, schedule: Q01DX005 (ip), vehicle: Klucel (hydroxypropylcellulose) (HPC)
  T/C: 97 % of control
dose: 200.0 mg/kg/injection, schedule: Q01DX005 (ip), vehicle: saline + Tween-80 + alcohol
  T/C: 94 % of control

## O=C(N1CCCCCC1)N1CC1
[7]
  T/C: 93 % of control
[8]
  T/C: 118 % of control

## CC(=O)NC1C(Nc2ccc(S(=O)(=O)Nc3ncccn3)cc2)OC(CO)C(O)C1O (stereo not given)
[9]
  T/C: 106 % of control
[11]
  T/C: 99 % of control
[13]
  T/C: 101 % of control

## O=C1C=CC2C=CC1C=C2
dose: 25.0 mg/kg/injection, schedule: Q01DX005 (ip), vehicle: saline with Tween-80
  T/C: 116 % of control
dose: 50.0 mg/kg/injection, schedule: Q01DX005 (ip), vehicle: saline with Tween-80
  T/C: 104 % of control
[4]
  T/C: 118 % of control
dose: 100.0 mg/kg/injection, schedule: Q01DX005 (ip), vehicle: saline with Tween-80
  T/C: 122 % of control

## O=C(/C=C/c1ccc(OCc2ccccc2)cc1)c1cccc(Cl)c1
dose: 6.25 mg/kg/injection, schedule: Q01DX009 (ip), vehicle: saline with Tween-80
  T/C: 95 % of control
dose: 12.5 mg/kg/injection, schedule: Q01DX009 (ip), vehicle: saline with Tween-80
  T/C: 95 % of control
dose: 25.0 mg/kg/injection, schedule: Q01DX009 (ip), vehicle: saline with Tween-80
  T/C: 93 % of control

## Cc1ccc2c(c1)C1(SC(C)C(=O)N1c1ccc(I)cc1)C(=O)N2 (stereo not given)
[4]
  T/C: 103 % of control
[5]
  T/C: 94 % of control
[6]
  T/C: 91 % of control

## OC(C1=NNC(C(O)c2ccccc2)=NN1)c1ccccc1 (stereo not given)
[4]
  T/C: 92 % of control
[5]
  T/C: 100 % of control
[6]
  T/C: 102 % of control

## CN(C)Cc1cc2c(=O)[nH]c(N)nc2[nH]1
dose: 100.0 mg/kg/injection, schedule: Q01DX001 (ip), vehicle: Klucel (hydroxypropylcellulose) (HPC)
  T/C: 101 % of control
dose: 200.0 mg/kg/injection, schedule: Q01DX001 (ip), vehicle: Klucel (hydroxypropylcellulose) (HPC)
  T/C: 104 % of control

## O=c1ccocc1OC1OC(CO)C(O)C(O)C1O (stereo not given)
dose: 5.75 mg/kg/injection, schedule: Q01DX005 (ip), vehicle: saline
  T/C: 95 % of control
dose: 11.5 mg/kg/injection, schedule: Q01DX005 (ip), vehicle: saline
  T/C: 113 % of control
dose: 23.0 mg/kg/injection, schedule: Q01DX005 (ip), vehicle: saline
  T/C: 106 % of control
dose: 46.0 mg/kg/injection, schedule: Q01DX005 (ip), vehicle: saline
  T/C: 105 % of control

## CC(=O)OC1CC2CCCCC2[N+](C)(C)C1 (stereo not given)
dose: 25.0 mg/kg/injection, schedule: Q04DX003 (ip), vehicle: saline
  T/C: 106 % of control
dose: 50.0 mg/kg/injection, schedule: Q04DX003 (ip), vehicle: saline
  T/C: 103 % of control
dose: 100.0 mg/kg/injection, schedule: Q04DX003 (ip), vehicle: saline
  T/C: 104 % of control

## Cc1cc(Cl)cnc1N
[1]
  T/C: 99 % of control
[2]
  T/C: 97 % of control
[3]
  T/C: 92 % of control

## CC(=O)NC(Cc1ccsc1)C(=O)O (stereo not given)
[1]
  T/C: 108 % of control
[2]
  T/C: 92 % of control
[3]
  T/C: 99 % of control

## C=C(C)C1CC2(C)C(C)CC(OC(=O)/C(C)=C\C)CC2C(OC(=O)/C(C)=C\C)C1O (stereo not given)
dose: 12.5 mg/kg/injection, schedule: Q01DX009 (ip), vehicle: Klucel (hydroxypropylcellulose) (HPC)
  T/C: 86 % of control
dose: 25.0 mg/kg/injection, schedule: Q01DX009 (ip), vehicle: Klucel (hydroxypropylcellulose) (HPC)
  T/C: 96 % of control
[7]
  T/C: 96 % of control
[8]
  T/C: 100 % of control

## O=[N+]([O-])c1cccc(OCCOc2ccccc2)c1
dose: 100.0 mg/kg/injection, schedule: Q01DX009 (ip), vehicle: other
  T/C: 110 % of control
dose: 200.0 mg/kg/injection, schedule: Q01DX009 (ip), vehicle: other
  T/C: 105 % of control

## CS(=O)(=O)c1cccc(C(=O)O)c1
[7]
  T/C: 108 % of control
[8]
  T/C: 108 % of control
dose: 200.0 mg/kg/injection, schedule: Q01DX009 (ip), vehicle: Klucel (hydroxypropylcellulose) (HPC)
  T/C: 99 % of control

## CCOP(=O)(Nc1ccc(C)cc1)OCC
[10]
  T/C: 104 % of control
[12]
  T/C: 109 % of control
[14]
  T/C: 105 % of control

## CC(C(=O)O)S(=O)(=O)O (stereo not given)
dose: 20.0 mg/kg/injection, schedule: Q01DX009 (ip), vehicle: saline with Tween-80
  T/C: 100 % of control
dose: 40.0 mg/kg/injection, schedule: Q01DX009 (ip), vehicle: saline with Tween-80
  T/C: 96 % of control
